# Assay results from patent US9193731B2, “Antimicrobial compounds and methods of making and using the same” (Melinta Therapeutics, Inc., priority 2009, dated 2015).
# Tested on: Escherichia coli strain ATCC25922
# Assay: standard microdilution assay to determine minimum inhibitory concentrations (MICs)
# Type: cell-based
# Settings: Escherichia coli strain ATCC25922, microdilution
# How it was run: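 E. coli strain ATCC25922 tested per CLSI microdilution methodology (about 100 microliters per well) to find minimum inhibitory concentrations. Activity scored categorically at a 16 micrograms/ml threshold.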
row,Compound,E. coli ATCC25922 MIC
1,NCCCNCc1ccc(-n2cc3cc(-c4cc(CN5CCS(=O)(=O)CC5)cc(N5CCNCC5)c4)[nH]c3nc2=O)cc1 [Compound 914],− (a “−” indicates that the compound has an MIC value greater than 16 micrograms/ml)
2,N=C(N)NCCCNCc1ccc(-n2cc3cc(-c4cc(C(=O)NCC5CCCO5)cc(N5CCNCC5)c4)[nH]c3nc2=O)cc1 (stereo not drawn) [Compound 1029],+ (a “+” indicates that the compound has an MIC value of 16 micrograms/ml or less)
3,CC(=O)NCCc1cc(OCC(F)CN)cc(-c2cc3cn(-c4ccc(CNCCCNC(=N)N)cc4)c(=O)nc3[nH]2)c1 (stereo not drawn) [Compound 2032a],− (a “−” indicates that the compound has an MIC value greater than 16 micrograms/ml)
4,NC(N)=NCCCNCc1ccc(-n2cc3cc(CCS(=O)(=O)CCNC4CCNCC4)[nH]c3nc2=O)cc1 [Compound 1251],+ (a “+” indicates that the compound has an MIC value of 16 micrograms/ml or less)
5,N=C(N)NCCCNCc1ccc(-n2cc3cc(-c4cc(C(=O)Nc5ccc(F)cn5)cc(N5CCNCC5)c4)[nH]c3nc2=O)cc1 [Compound 994],+ (a “+” indicates that the compound has an MIC value of 16 micrograms/ml or less)
6,N=C(N)NCCCNCc1ccc(-n2cc3cc(-c4cccc(S(=O)(=O)NCCN)c4)[nH]c3nc2=O)cc1 [Compound 2007a],+ (a “+” indicates that the compound has an MIC value of 16 micrograms/ml or less)
7,CC(CN)CN1CCC(c2cc3cn(-c4ccc(CNCCCNC(=N)N)cc4)c(=O)nc3[nH]2)C1 (stereo not drawn) [Compound 2040a],+ (a “+” indicates that the compound has an MIC value of 16 micrograms/ml or less)
8,NC(=O)CCCN(C1CCNCC1)S(=O)(=O)c1ccc(-c2cc3cn(-c4ccc(CNC(=O)CCN=C(N)N)cc4)c(=O)nc3[nH]2)cc1 [Compound 1194],− (a “−” indicates that the compound has an MIC value greater than 16 micrograms/ml)
9,N=C(N)NCCCNCc1ccc(-n2cc3cc(-c4cc(OCC(F)CN)cc(-c5cccc(CN)c5)c4)[nH]c3nc2=O)cc1 (stereo not drawn) [Compound 2030a],+ (a “+” indicates that the compound has an MIC value of 16 micrograms/ml or less)
10,N=C(N)NCCCNCc1ccc(-n2cc3cc(-c4cccc(SCCN)c4)[nH]c3nc2=O)cc1 [Compound 1451],+ (a “+” indicates that the compound has an MIC value of 16 micrograms/ml or less)
11,COCCOCCN(C1CCNCC1)S(=O)(=O)c1ccc(-c2cc3cn(-c4ccc(CNCCCNC(=N)N)cc4)c(=O)nc3[nH]2)cc1 [Compound 802],+ (a “+” indicates that the compound has an MIC value of 16 micrograms/ml or less)
12,N=C(N)NCCCNCc1ccc(-n2cc3cc(-c4cc(C(=O)NCCc5cccc(F)c5)cc(N5CCNCC5)c4)[nH]c3nc2=O)cc1 [Compound 1068],+ (a “+” indicates that the compound has an MIC value of 16 micrograms/ml or less)
13,NCCCOc1cccc(-c2cc3cn(-c4ccc(CNCCCN=C(N)N)cc4)c(=O)nc3[nH]2)c1 [Compound 1179],+ (a “+” indicates that the compound has an MIC value of 16 micrograms/ml or less)
14,N=C(N)NCCCNCC(Cn1cc2cc(-c3ccc(S(=O)(=O)NC4CCNCC4)cc3)[nH]c2nc1=O)OCc1ccc(F)cc1 (stereo not drawn) [Compound 1097],− (a “−” indicates that the compound has an MIC value greater than 16 micrograms/ml)
15,NC(N)=NCCCNCc1ccc(-n2cc3cc(-c4cccc(S(=O)(=O)N(CCc5cccc([N+](=O)[O-])c5)C5CCNCC5)c4)[nH]c3nc2=O)cc1 [Compound 1185],+ (a “+” indicates that the compound has an MIC value of 16 micrograms/ml or less)
16,N=C(N)NCCCNCc1ccc(-n2cc3cc(-c4cccc(S(=O)(=O)N(CCCN5CCCCC5)C5CCNCC5)c4)[nH]c3nc2=O)cc1 [Compound 1027],+ (a “+” indicates that the compound has an MIC value of 16 micrograms/ml or less)
17,NC(=O)c1ccc(-n2cc3cc(-c4ccc(S(=O)(=O)N(CCCn5ccc(C(F)(F)F)n5)C5CCNCC5)cc4)[nH]c3nc2=O)cc1 [Compound 1116],− (a “−” indicates that the compound has an MIC value greater than 16 micrograms/ml)
18,N=C(N)NCCCNCc1ccc(-n2cc3cc(CCS(=O)(=O)N(CCCc4ccccc4F)C4CCNCC4)[nH]c3nc2=O)cc1 [Compound 992],+ (a “+” indicates that the compound has an MIC value of 16 micrograms/ml or less)
19,N=C(N)NCCCNCc1ccc(-n2cc3cc(-c4ccc(C[C@H](N)CO)cc4)[nH]c3nc2=O)cc1 [Compound 907],+ (a “+” indicates that the compound has an MIC value of 16 micrograms/ml or less)
20,N=C(N)N[C@@H]1CCN(Cc2ccc(-n3cc4cc(-c5ccc(S(=O)(=O)N(CCCN6CCCCC6)C6CCNCC6)cc5)[nH]c4nc3=O)cc2)C1 [Compound 1201],+ (a “+” indicates that the compound has an MIC value of 16 micrograms/ml or less)
21,N=C(N)NCCCNCc1ccc(-n2cc3cc(-c4cc(CCCCN)cc([S+]([O-])C(F)(F)F)c4)[nH]c3nc2=O)cc1 (stereo not drawn) [Compound 2054a],+ (a “+” indicates that the compound has an MIC value of 16 micrograms/ml or less)
22,N=C(N)NCCCNCc1ccc(-n2cc3cc(-c4cc(CCCCN)cc(C(F)F)c4)[nH]c3nc2=O)cc1 [Compound 2087a],+ (a “+” indicates that the compound has an MIC value of 16 micrograms/ml or less)
23,N=C(N)NCCCNCc1ccc(-n2cc3cc(-c4cccc(S(=O)(=O)N(CCc5ccc(F)cc5)C5CCNCC5)c4)[nH]c3nc2=O)cc1 [Compound 1172],+ (a “+” indicates that the compound has an MIC value of 16 micrograms/ml or less)
24,CC(N)CCOc1cccc(-c2cc3cn(-c4ccc(CNCCCNC(=N)N)cc4)c(=O)nc3[nH]2)c1 (stereo not drawn) [Compound 1439],+ (a “+” indicates that the compound has an MIC value of 16 micrograms/ml or less)
25,N=C(N)NCCCNCc1ccc(-n2cc3cc(-c4cc(C(=O)Nc5nc(C(F)(F)F)cs5)cc(N5CCNCC5)c4)[nH]c3nc2=O)cc1 [Compound 1061],+ (a “+” indicates that the compound has an MIC value of 16 micrograms/ml or less)
26,CS(=O)(=O)NCc1cc(OCC(F)CN)cc(-c2cc3cn(-c4ccc(CNCCCNC(=N)N)cc4)c(=O)nc3[nH]2)c1 (stereo not drawn) [Compound 2037a],− (a “−” indicates that the compound has an MIC value greater than 16 micrograms/ml)

# Same assay, conditions: Escherichia coli, ATCC25922, Escherichia coli strain ATCC25922, microdilution; read-out: E. coli ATCC25922 MIC
row,Compound,MIC [µg/mL]
1,N=C(N)NCCCNCc1ccc(-n2cc3cc(-c4cccc(S(=O)(=O)N(CCn5ccnc5)C5CCNCC5)c4)[nH]c3nc2=O)cc1 [Compound 1159],< 16
2,NCCCOc1cccc(-c2cc3cn(-c4ccc(CN)cc4)c(=O)nc3[nH]2)c1 [Compound 1087],> 16
3,NCCCN(CCCN)Cc1ccc(-n2cc3cc(-c4ccccc4C(F)(F)F)[nH]c3nc2=O)cc1F [Compound 318],> 16
4,NCCCNCc1ccc(-c2cn3nc(C4CC4)[nH]c3nc2=O)cc1 [Compound 646],> 16
5,O=c1nc2[nH]c(-c3ccc(S(=O)(=O)NC4CCNCC4)cc3)cc2cn1-c1ccccc1O [Compound 1208],> 16
6,CCOCCOc1cccc(-c2cc3cn(-c4ccc(CN)cc4)c(=O)nc3[nH]2)c1 [Compound 1121],> 16
7,NCc1ccc(-n2cc3cc(-c4cccc(S(=O)(=O)N(CCn5nccc5N)C5CCNCC5)c4)[nH]c3nc2=O)cc1 [Compound 1248],> 16
8,NCCCCOc1ccc(-c2cn3cc(-c4ccc(C(=O)NC5CCNCC5)cc4)[nH]c3nc2=O)cc1 [Compound 829],> 16
9,NCCCc1cccc(-c2cc3cn(-c4ccc(C(N)C(F)(F)F)cc4)c(=O)nc3[nH]2)c1 (stereo not drawn) [Compound 2080a],> 16
10,NCCCNCc1ccc(-n2cc3cc(-c4ccncc4)[nH]c3nc2=O)cc1 [Compound 633],> 16
11,NCCCNCc1ccc(-n2cc3cc(CC4CCCCC4)[nH]c3nc2=O)cc1 [Compound 622],> 16
12,CC(=O)NCCN1CCCC(c2cc3cn(-c4ccc(CNCCCNC(=N)N)cc4)c(=O)nc3[nH]2)C1 (stereo not drawn) [Compound 2018a],< 16
13,COc1ccccc1-c1nn2cc(-c3ccc(CNCCCN)cc3)c(=O)nc2[nH]1 [Compound 734],> 16
14,CC(C)ONC(=O)c1ccc(-c2cn3cc(-c4ccc(CNCCCNC(=N)N)cc4)c(=O)nc3[nH]2)cc1 [Compound 737],> 16
15,NCc1ccc(-n2cc3cc(-c4ccc(S(=O)(=O)N(CCCn5cccn5)C5CCNCC5)cc4)[nH]c3nc2=O)cc1 [Compound 1035],> 16
16,NCCCNCc1ccc(-c2cn3cc(-c4ccc(C(=O)NN5CCOCC5)cc4)[nH]c3nc2=O)cc1 [Compound 723],> 16
17,NCCCN(CCCN)Cc1ccc(-n2cc3cc(-c4ccc(CO)cc4)[nH]c3nc2=O)cc1 [Compound 179],> 16
18,CN1CCN(c2cccc(-c3cc4cn(-c5ccc(CNCCCN)cc5)c(=O)nc4[nH]3)c2)CC1 [Compound 677],< 16
19,NCCCN(CCCN)Cc1ccc(-n2cc3cc(-c4ccc(C(=O)N(Cc5cc(F)cc(F)c5)C5CCNCC5)cc4)[nH]c3nc2=O)cc1 [Compound 225],< 16
20,Cc1cc(CNc2cn3cc(-c4ccc(CNCCCN)cc4)c(=O)nc3[nH]2)no1 [Compound 679],> 16
21,NCCCNCc1ccc(-n2cc3cc(-c4cccc(NCC(=O)N5CCNCC5)c4)[nH]c3nc2=O)cc1 [Compound 644],< 16
22,NCCCNCc1ccc(-n2cc3cc(CCN)[nH]c3nc2=O)cc1 [Compound 624],< 16
23,NCCCCN1CCC(n2cc3c(nc2=O)[nH]c2ccccc23)CC1 [Compound 600],> 16
24,CC1CCCCN1CCCN(C1CCNCC1)S(=O)(=O)c1ccc(-c2cc3cn(-c4ccc(CN)cc4)c(=O)nc3[nH]2)cc1 (stereo not drawn) [Compound 1051],> 16
25,N=C(N)NCCCNCc1ccc(-n2cc3cc(C[C@@H](CO)NC(=O)c4ccccc4)[nH]c3nc2=O)cc1 [Compound 1231],> 16
26,N=C(N)NCCCN1CC=C(c2cn3cc[nH]c3nc2=O)CC1 [Compound 572],> 16
27,N=C(N)CCCOc1cccc(-c2cc3cn(-c4ccc(CNCCCN)cc4)c(=O)nc3[nH]2)c1 [Compound 1216],< 16
28,CN1C2CCC1CC(NC(=O)c1ccc(-c3cc4cn(-c5ccc(CN(CCCN)CCCN)cc5)c(=O)nc4[nH]3)cc1)C2 (stereo not drawn) [Compound 206],< 16
